From ChEMBL document CHEMBL3137667, “[Drug-induced liver injury; fourteenth updated edition of the bibliographic database of liver injuries and related drugs]” (Gastroenterol Clin Biol, 2004)

How the values were obtained:
[1] = human
[2] = human; remark: listed apart in the source
[3] = Highest frequency of moderate liver toxicity observed during clinical trials, expressed as a percentage. [column '% BIOL' in source]; conditions: human
[4] = human, serum, 4383 h
[5] = human, serum
[6] = human; remark: listed apart in the source
[7] = human; remark: listed apart in the source
[8] = human; remark: listed apart in the source
[9] = human; remark: listed apart in the source
[10] = human, serum; remark: listed apart in the source
[11] = human; remark: listed apart in the source
[12] = human; remark: listed apart in the source
[13] = Highest frequency of acute liver toxicity observed during clinical trials, expressed as a percentage. [column '% AIGUE' in source]; conditions: human
[14] = human; remark: listed apart in the source
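For Hepatotoxicity (association with vascular disease) in this document: count of indexed literature references reporting vascular liver injury in humans, e.g. peliosis hepatitis, hepatic veno-occlusive disease or Budd-Chiari syndrome.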
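For Hepatotoxicity (benign tumour) in this document: value is a count of indexed literature references citing a benign tumour confirmed by histopathology.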
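For Hepatotoxicity (choleostasis) in this document: human cholestatic liver injury, shown by histopathology or by peak ALT or AST elevation over alkaline phosphatase ratio below 2, value counts indexed literature reports.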
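For Hepatotoxicity (chronic liver disease) in this document: chronic liver injury confirmed by histopathology or persistently raised serum aminotransferase activity beyond 6 months, value given as the count of indexed literature references.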
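For Hepatotoxicity (cirrhosis) in this document: value is a count of indexed literature references reporting cirrhosis confirmed by histopathology.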
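For Hepatotoxicity (cytolytic) in this document: human cytolytic liver injury, shown by histopathology or by a ratio above 5 of peak ALT or AST elevation to alkaline phosphatase elevation, value counts indexed references.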
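For Hepatotoxicity (granulomatous hepatitis) in this document: value is a count of indexed literature references reporting granulomatous liver disease confirmed by histopathology.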
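For Hepatotoxicity (malignant tumour) in this document: malignant tumour confirmed by histopathology, value gives the count of indexed literature references reporting it.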
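For Hepatotoxicity (severe hepatitis) in this document: human clinical data: severe hepatitis, meaning potentially life-threatening liver failure or clinically observed cases, the value counts how many indexed literature references report it.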
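For Hepatotoxicity (steatosis) in this document: steatosis confirmed by histopathology, value is the count of indexed references.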

In the case of `CCOC(=O)OC(C)OC(=O)[C@@H]1N2C(=O)[C@@H](NC(=O)[C@H](N)c3ccccc3)[C@H]2SC1(C)C` (stereo not given in full) [BACAMPICILLIN], the “Hepatotoxicity (benign tumour)” value [1] is reported as 0, the “Hepatotoxicity (steatosis)” value [2] is reported as 0 and the “Hepatotoxicity (moderate)” value [3] is reported as 0%. For the same compound, the “Hepatotoxicity (chronic liver disease)” value [4] was 0, the “Hepatotoxicity (acute)” value [5] was 0 and the “Hepatotoxicity (association with vascular disease)” value [6] was 0. For the same compound, the “Hepatotoxicity (cirrhosis)” value [7] was 0, the “Hepatotoxicity (severe hepatitis)” value [8] was 0 and the “Hepatotoxicity (granulomatous hepatitis)” value [9] was 0. For the same compound, the “Hepatotoxicity (moderate)” value [10] was 2, the “Hepatotoxicity (choleostasis)” value [11] was 0 and the “Hepatotoxicity (cytolytic)” value [12] was 0. The “Hepatotoxicity (acute)” value [13] was 0% and the “Hepatotoxicity (malignant tumour)” value [14] was 0.
For `CCOC(=O)OC(C)OC(=O)[C@@H]1N2C(=O)[C@@H](/N=C/N3CCCCCC3)[C@H]2SC1(C)C` (stereo not given in full) [BACMECILLINAM], the “Hepatotoxicity (benign tumour)” value [1] was 0, the “Hepatotoxicity (steatosis)” value [2] was 0 and the “Hepatotoxicity (moderate)” value [3] was 1.8%. The “Hepatotoxicity (chronic liver disease)” value [4] was 0, the “Hepatotoxicity (acute)” value [5] was 0 and the “Hepatotoxicity (association with vascular disease)” value [6] was 0. The “Hepatotoxicity (cirrhosis)” value [7] was 0, the “Hepatotoxicity (severe hepatitis)” value [8] was 0 and the “Hepatotoxicity (granulomatous hepatitis)” value [9] was 0. The “Hepatotoxicity (moderate)” value [10] was 3, the “Hepatotoxicity (choleostasis)” value [11] was 0 and the “Hepatotoxicity (cytolytic)” value [12] was 0. For the same compound, the “Hepatotoxicity (acute)” value [13] was 0% and the “Hepatotoxicity (malignant tumour)” value [14] was 0.
For `CNC1CCCN(c2c(F)cc3c(=O)c(C(=O)O)cn(C4CC4)c3c2OC)C1` (stereo not given) [BALOFLOXACIN], the “Hepatotoxicity (benign tumour)” value [1] was 0, the “Hepatotoxicity (steatosis)” value [2] was 0 and the “Hepatotoxicity (moderate)” value [3] was 28.6%. The “Hepatotoxicity (chronic liver disease)” value [4] was 0, the “Hepatotoxicity (acute)” value [5] was 0 and the “Hepatotoxicity (association with vascular disease)” value [6] was 0. The “Hepatotoxicity (cirrhosis)” value [7] was 0, the “Hepatotoxicity (severe hepatitis)” value [8] was 0 and the “Hepatotoxicity (granulomatous hepatitis)” value [9] was 0. The “Hepatotoxicity (moderate)” value [10] was 23, the “Hepatotoxicity (choleostasis)” value [11] was 0 and the “Hepatotoxicity (cytolytic)” value [12] was 0. The “Hepatotoxicity (acute)” value [13] was 0% and the “Hepatotoxicity (malignant tumour)” value [14] was 0.
With `COC(=O)C1=C(C)NC(C)=C(C(=O)O[C@H]2CCN(Cc3ccccc3)C2)[C@H]1c1cccc([N+](=O)[O-])c1` [BARNIDIPINE] the “Hepatotoxicity (benign tumour)” value [1] was 0, the “Hepatotoxicity (steatosis)” value [2] was 0 and the “Hepatotoxicity (moderate)” value [3] was 6.5%. For the same compound, the “Hepatotoxicity (chronic liver disease)” value [4] was 0, the “Hepatotoxicity (acute)” value [5] was 0 and the “Hepatotoxicity (association with vascular disease)” value [6] was 0. For the same compound, the “Hepatotoxicity (cirrhosis)” value [7] was 0, the “Hepatotoxicity (severe hepatitis)” value [8] was 0 and the “Hepatotoxicity (granulomatous hepatitis)” value [9] was 0. The “Hepatotoxicity (moderate)” value [10] was 1, the “Hepatotoxicity (choleostasis)” value [11] was 0 and the “Hepatotoxicity (cytolytic)” value [12] was 0. For the same compound, the “Hepatotoxicity (acute)” value [13] was 0% and the “Hepatotoxicity (malignant tumour)” value [14] was 0.
In the case of `C[C@H]1C[C@H]2[C@@H]3CCC4=CC(=O)C=C[C@]4(C)[C@@]3(Cl)[C@@H](O)C[C@]2(C)[C@@]1(O)C(=O)CO` [BECLOMETHASONE], the “Hepatotoxicity (benign tumour)” value [1] is reported as 0, the “Hepatotoxicity (steatosis)” value [2] is reported as 0 and the “Hepatotoxicity (moderate)” value [3] is reported as 11.6%. The “Hepatotoxicity (chronic liver disease)” value [4] was 0, the “Hepatotoxicity (acute)” value [5] was 0 and the “Hepatotoxicity (association with vascular disease)” value [6] was 0. For the same compound, the “Hepatotoxicity (cirrhosis)” value [7] was 0, the “Hepatotoxicity (severe hepatitis)” value [8] was 0 and the “Hepatotoxicity (granulomatous hepatitis)” value [9] was 0. For the same compound, the “Hepatotoxicity (moderate)” value [10] was 1, the “Hepatotoxicity (choleostasis)” value [11] was 0 and the “Hepatotoxicity (cytolytic)” value [12] was 0. The “Hepatotoxicity (acute)” value [13] was 0% and the “Hepatotoxicity (malignant tumour)” value [14] was 0.
With `NS(=O)(=O)c1cc2c(cc1C(F)(F)F)NC(Cc1ccccc1)NS2(=O)=O` (stereo not given) [BENDROFLUMETHIAZIDE] the “Hepatotoxicity (benign tumour)” value [1] was 0, the “Hepatotoxicity (steatosis)” value [2] was 0 and the “Hepatotoxicity (moderate)” value [3] was 0%. For the same compound, the “Hepatotoxicity (chronic liver disease)” value [4] was 0, the “Hepatotoxicity (acute)” value [5] was 1 and the “Hepatotoxicity (association with vascular disease)” value [6] was 0. For the same compound, the “Hepatotoxicity (cirrhosis)” value [7] was 0, the “Hepatotoxicity (severe hepatitis)” value [8] was 0 and the “Hepatotoxicity (granulomatous hepatitis)” value [9] was 0. The “Hepatotoxicity (moderate)” value [10] was 0, the “Hepatotoxicity (choleostasis)” value [11] was 0 and the “Hepatotoxicity (cytolytic)” value [12] was 0. The “Hepatotoxicity (acute)” value [13] was 0% and the “Hepatotoxicity (malignant tumour)” value [14] was 0.
In the case of `O=C(Cn1ccnc1[N+](=O)[O-])NCc1ccccc1` [BENZNIDAZOLE], the “Hepatotoxicity (benign tumour)” value [1] is reported as 0, the “Hepatotoxicity (steatosis)” value [2] is reported as 0 and the “Hepatotoxicity (moderate)” value [3] is reported as 0%. The “Hepatotoxicity (chronic liver disease)” value [4] was 0, the “Hepatotoxicity (acute)” value [5] was 1 and the “Hepatotoxicity (association with vascular disease)” value [6] was 0. The “Hepatotoxicity (cirrhosis)” value [7] was 0, the “Hepatotoxicity (severe hepatitis)” value [8] was 0 and the “Hepatotoxicity (granulomatous hepatitis)” value [9] was 0. For the same compound, the “Hepatotoxicity (moderate)” value [10] was 0, the “Hepatotoxicity (choleostasis)” value [11] was 0 and the “Hepatotoxicity (cytolytic)” value [12] was 0. The “Hepatotoxicity (acute)” value [13] was 0% and the “Hepatotoxicity (malignant tumour)” value [14] was 0.
With `CC#CCC(C)[C@H](O)/C=C/[C@@H]1[C@H]2c3cccc(CCCC(=O)O)c3O[C@H]2C[C@H]1O` (stereo not given in full) [BERAPROST] the “Hepatotoxicity (benign tumour)” value [1] was 0, the “Hepatotoxicity (steatosis)” value [2] was 0 and the “Hepatotoxicity (moderate)” value [3] was 13%. The “Hepatotoxicity (chronic liver disease)” value [4] was 0, the “Hepatotoxicity (acute)” value [5] was 0 and the “Hepatotoxicity (association with vascular disease)” value [6] was 0. The “Hepatotoxicity (cirrhosis)” value [7] was 0, the “Hepatotoxicity (severe hepatitis)” value [8] was 0 and the “Hepatotoxicity (granulomatous hepatitis)” value [9] was 0. The “Hepatotoxicity (moderate)” value [10] was 1, the “Hepatotoxicity (choleostasis)” value [11] was 0 and the “Hepatotoxicity (cytolytic)” value [12] was 0. For the same compound, the “Hepatotoxicity (acute)” value [13] was 0% and the “Hepatotoxicity (malignant tumour)” value [14] was 0.
With `C[C@H]1C[C@H]2[C@@H]3CCC4=CC(=O)C=C[C@]4(C)[C@@]3(F)[C@@H](O)C[C@]2(C)[C@@]1(O)C(=O)CO` [BETAMETHASONE] the “Hepatotoxicity (benign tumour)” value [1] was 0, the “Hepatotoxicity (steatosis)” value [2] was 1 and the “Hepatotoxicity (moderate)” value [3] was 0%. For the same compound, the “Hepatotoxicity (chronic liver disease)” value [4] was 0, the “Hepatotoxicity (acute)” value [5] was 0 and the “Hepatotoxicity (association with vascular disease)” value [6] was 0. The “Hepatotoxicity (cirrhosis)” value [7] was 0, the “Hepatotoxicity (severe hepatitis)” value [8] was 0 and the “Hepatotoxicity (granulomatous hepatitis)” value [9] was 0. For the same compound, the “Hepatotoxicity (moderate)” value [10] was 0, the “Hepatotoxicity (choleostasis)” value [11] was 0 and the “Hepatotoxicity (cytolytic)” value [12] was 0. For the same compound, the “Hepatotoxicity (acute)” value [13] was 0% and the “Hepatotoxicity (malignant tumour)” value [14] was 0.
With `C[C@@H](O)[C@H]1C(=O)N2C(C(=O)[O-])=C(SC3Cn4cnc[n+]4C3)[C@H](C)[C@H]12` (stereo not given in full) [BIAPENEM] the “Hepatotoxicity (benign tumour)” value [1] was 0, the “Hepatotoxicity (steatosis)” value [2] was 0 and the “Hepatotoxicity (moderate)” value [3] was 40%. The “Hepatotoxicity (chronic liver disease)” value [4] was 0, the “Hepatotoxicity (acute)” value [5] was 0 and the “Hepatotoxicity (association with vascular disease)” value [6] was 0. The “Hepatotoxicity (cirrhosis)” value [7] was 0, the “Hepatotoxicity (severe hepatitis)” value [8] was 0 and the “Hepatotoxicity (granulomatous hepatitis)” value [9] was 0. For the same compound, the “Hepatotoxicity (moderate)” value [10] was 56, the “Hepatotoxicity (choleostasis)” value [11] was 0 and the “Hepatotoxicity (cytolytic)” value [12] was 0. For the same compound, the “Hepatotoxicity (acute)” value [13] was 0% and the “Hepatotoxicity (malignant tumour)” value [14] was 0.
In the case of `C(=N\NC1=NCCN1)/c1c2ccccc2c(/C=N/NC2=NCCN2)c2ccccc12` [BISANTRENE], the “Hepatotoxicity (benign tumour)” value [1] is reported as 0, the “Hepatotoxicity (steatosis)” value [2] is reported as 0 and the “Hepatotoxicity (moderate)” value [3] is reported as 49%. The “Hepatotoxicity (chronic liver disease)” value [4] was 0, the “Hepatotoxicity (acute)” value [5] was 1 and the “Hepatotoxicity (association with vascular disease)” value [6] was 0. The “Hepatotoxicity (cirrhosis)” value [7] was 0, the “Hepatotoxicity (severe hepatitis)” value [8] was 0 and the “Hepatotoxicity (granulomatous hepatitis)” value [9] was 0. For the same compound, the “Hepatotoxicity (moderate)” value [10] was 4, the “Hepatotoxicity (choleostasis)” value [11] was 1 and the “Hepatotoxicity (cytolytic)” value [12] was 0. The “Hepatotoxicity (acute)” value [13] was 0% and the “Hepatotoxicity (malignant tumour)” value [14] was 0.
In the case of `CC(C)NCC(O)COc1ccc(COCCOC(C)C)cc1` (stereo not given) [BISOPROLOL], the “Hepatotoxicity (benign tumour)” value [1] is reported as 0, the “Hepatotoxicity (steatosis)” value [2] is reported as 0 and the “Hepatotoxicity (moderate)” value [3] is reported as 7.1%. The “Hepatotoxicity (chronic liver disease)” value [4] was 0, the “Hepatotoxicity (acute)” value [5] was 0 and the “Hepatotoxicity (association with vascular disease)” value [6] was 0. For the same compound, the “Hepatotoxicity (cirrhosis)” value [7] was 0, the “Hepatotoxicity (severe hepatitis)” value [8] was 0 and the “Hepatotoxicity (granulomatous hepatitis)” value [9] was 0. For the same compound, the “Hepatotoxicity (moderate)” value [10] was 3, the “Hepatotoxicity (choleostasis)” value [11] was 0 and the “Hepatotoxicity (cytolytic)” value [12] was 0. For the same compound, the “Hepatotoxicity (acute)” value [13] was 0% and the “Hepatotoxicity (malignant tumour)” value [14] was 0.
With `CN(Cc1cc(Br)cc(Br)c1N)C1CCCCC1` [BROMHEXINE] the “Hepatotoxicity (benign tumour)” value [1] was 0, the “Hepatotoxicity (steatosis)” value [2] was 0 and the “Hepatotoxicity (moderate)” value [3] was 0%. The “Hepatotoxicity (chronic liver disease)” value [4] was 0, the “Hepatotoxicity (acute)” value [5] was 0 and the “Hepatotoxicity (association with vascular disease)” value [6] was 0. For the same compound, the “Hepatotoxicity (cirrhosis)” value [7] was 0, the “Hepatotoxicity (severe hepatitis)” value [8] was 0 and the “Hepatotoxicity (granulomatous hepatitis)” value [9] was 0. The “Hepatotoxicity (moderate)” value [10] was 1, the “Hepatotoxicity (choleostasis)” value [11] was 0 and the “Hepatotoxicity (cytolytic)” value [12] was 0. The “Hepatotoxicity (acute)” value [13] was 0% and the “Hepatotoxicity (malignant tumour)” value [14] was 0.
With `Nc1nc(-c2ccccc2)c(Br)c(=O)[nH]1` [BROPIRIMINE] the “Hepatotoxicity (benign tumour)” value [1] was 0, the “Hepatotoxicity (steatosis)” value [2] was 0 and the “Hepatotoxicity (moderate)” value ([3]; Liver) was 3.1%. For the same compound, the “Hepatotoxicity (chronic liver disease)” value [4] was 0, the “Hepatotoxicity (acute)” value [5] was 0 and the “Hepatotoxicity (association with vascular disease)” value [6] was 0. The “Hepatotoxicity (cirrhosis)” value [7] was 0, the “Hepatotoxicity (severe hepatitis)” value ([8]; Liver) was 0 and the “Hepatotoxicity (granulomatous hepatitis)” value ([9]; Liver) was 0. The “Hepatotoxicity (moderate)” value [10] was 1, the “Hepatotoxicity (choleostasis)” value ([11]; Liver) was 0 and the “Hepatotoxicity (cytolytic)” value ([12]; Liver) was 0. The “Hepatotoxicity (acute)” value ([13]; Liver) was 0% and the “Hepatotoxicity (malignant tumour)” value [14] was 0.
For `CCC/C=C/C=C/C(=O)O[C@H]1/C(=C/C(=O)OC)C[C@H]2C[C@H]([C@@H](C)O)OC(=O)C[C@H](O)C[C@@H]3C[C@H](OC(C)=O)C(C)(C)[C@](O)(C[C@@H]4C/C(=C/C(=O)OC)C[C@H](/C=C/C(C)(C)[C@]1(O)O2)O4)O3` [BRYOSTATIN 1], the “Hepatotoxicity (benign tumour)” value [1] was 0, the “Hepatotoxicity (steatosis)” value [2] was 0 and the “Hepatotoxicity (moderate)” value [3] was 16.7%. The “Hepatotoxicity (chronic liver disease)” value [4] was 0, the “Hepatotoxicity (acute)” value [5] was 1 and the “Hepatotoxicity (association with vascular disease)” value [6] was 0. The “Hepatotoxicity (cirrhosis)” value [7] was 0, the “Hepatotoxicity (severe hepatitis)” value [8] was 0 and the “Hepatotoxicity (granulomatous hepatitis)” value [9] was 0. The “Hepatotoxicity (moderate)” value [10] was 2, the “Hepatotoxicity (choleostasis)” value [11] was 1 and the “Hepatotoxicity (cytolytic)” value [12] was 0. For the same compound, the “Hepatotoxicity (acute)” value [13] was 8.3% and the “Hepatotoxicity (malignant tumour)” value [14] was 0.
